# Measurements from ChEMBL document CHEMBL3507680, “University of Dundee, Gates Library screen for HepG2 cell viability”.
# Assay: Human HepG2 cell viability assay in 384 well format
# Assay type: toxicity, cell-based
# Parameters: dose 125 nL, time 70.5 hour; cytotoxicity at 70.5 h: concentration not given beside the values
# Conditions: HepG2 cells, read-out: Inhibition
row,Compound,cytotoxicity at 70.5 h
1,COc1ccc(CN2C[C@@H]3CCCO[C@@H]3[C@H](NS(C)(=O)=O)C2)cc1,-9.16%
2,CCSCCC(=O)NCc1cc2n(n1)CCN(C(=O)N(C)C)C2,-6.68%
3,CSCC[C@H](N)C(=O)NCc1cc2n(n1)CCCN(C(=O)N(C)C)C2,-8.91%
4,CC(C)(C)n1ncc(NCCc2ccccc2C(F)(F)F)c(Cl)c1=O,33%
5,CC(=O)N[C@@H](CC(C)C)C(=O)N1CCC(n2cc(C(C)(C)N)nn2)CC1,-2.68%
6,CCN(C)Cc1n[nH]c(=O)n1-c1ccc(C)c(C)c1,-11.7%
7,CN1CCC(NN2CCN(C)CC2)CC1,-17.5%
8,Cc1noc([C@]23COC[C@H]2CN(C(=O)COC2CCCC2)C3)n1,-5.12%
9,CCOc1cc(C)nc(N2CCN(C(=O)c3cnc[nH]3)CC2)n1,-0.152%
10,Cn1ncc2c(=O)[nH]c(CN3CCCC3c3cccc(F)c3)nc21 (configuration not stated),-7.63%
11,CCN1CC2(CCN(C(=O)c3nc4cc(C)ccn4c3F)CC2)CC1=O,24.7%
12,CN(C)CC1(O)CCN(C(=O)c2ccc(-n3cccn3)cc2Cl)C1 (configuration not stated),5.18%
13,Cc1nc(C)c(CC(=O)Nc2nnc(C3CC3)s2)c(=O)[nH]1,-7.66%
14,CCN1CCN(c2ncnc3c2CCN(C(=O)C2CC2)C3)CC1,26.2%
15,CCN(CC1CCCO1)C(=O)NCCNC(=O)c1ccccc1F (configuration not stated),43.4%
16,c1nc(N2CCCC(Cn3cncn3)C2)c2sccc2n1 (configuration not stated),-2.8%
17,COc1ccccc1OCC(=O)n1nc(C)c(C)c1C,6.31%
18,CCOCc1nc(-c2cccc(OC)c2OC)n(C2CCN(C)CC2)n1,-1.78%
19,Cc1cc(C(=O)N2CCOC[C@H](Oc3cccnc3)C2)c(C(F)(F)F)o1,9.27%

row,Compound,cytotoxicity at 70.5 h
1,O=S(=O)(CCCn1cncn1)Cc1ccc(F)cc1Cl,-8.31%
2,Cc1ccnc(NC(=O)c2cc(C)oc2C)c1,4.63%
3,Cc1cc(N2CCc3c(ncn3C3CC3)C2)nc(N)n1,-7.99%
4,CCNC(=O)C1(Cc2cc(-c3ccccc3)no2)CCCN(C(C)=O)C1 (configuration not stated),10.5%
5,COCC(=O)N1Cc2ccnn2CC(COCCN(C)C)C1 (configuration not stated),-3.25%
6,O=C(NCCCO)c1cc(-c2cc[nH]n2)n2ccccc12,-102%
7,O=C(c1ccccc1OCC1CC1)N1CCCC1Cn1cccn1 (configuration not stated),17.7%
8,O=C(O)CC(CC(=O)NCCc1ccsc1)c1cccs1 (configuration not stated),-13.1%
9,CCc1ccc(C(=O)N2CC[C@](C)(O)C(C)(C)C2)[nH]1,-3.24%
10,Cc1ccc(NC(=O)C2CCCN2C(=O)C2CC2)nc1 (configuration not stated),-3.51%
11,O=C(NCCNc1ccccn1)N1CCC(O)CC1,3.99%
12,O=C(NCc1nnc2n1CCCC2)N1CCc2ccccc2C1,-2.97%
13,CC(=O)N1CCCN(C(=O)c2ccn(-c3cccc(Cl)c3)n2)CC1,-26.5%
14,Cn1cc(CNC2CCC(O)CC2)c(-c2cc3ccccc3o2)n1 (configuration not stated),-6.96%
15,CCc1nc(CNC(C)(CO)C2CCCCC2)no1 (configuration not stated),15.6%
16,CC(C)CCn1nc2ccc(S(=O)(=O)N3CCOCC3)cn2c1=O,-7.21%
17,CC(C)C1CN(C(=O)Nc2cnn(CC(F)F)c2)CCS1 (configuration not stated),5.93%
18,CSC(C)CCN1CCC(n2cc(C3CCCCC3)nn2)CC1 (configuration not stated),-1.37%
19,CC(C)Oc1ncccc1CNC(=O)c1ccc(=O)[nH]n1,-3.21%

row,Compound,cytotoxicity at 70.5 h
1,O=C(NCCCOc1cccnc1)c1cn(Cc2ccccc2F)nn1,-12.2%
2,CCOc1cccnc1C(=O)N1CC=C(c2ccc(O)cc2)CC1,-7.65%
3,Cc1cc(-n2c(C)cn(CN(C)CC3CC3)c2=O)no1,-1.13%
4,CCn1c(-c2ccccc2)nn(CC(=O)NCCc2ccc(C)s2)c1=O,13.9%
5,O=C1NC2(CCN(Cc3ccccc3Cl)CC2)CC1c1ccccc1 (configuration not stated),-9.33%
6,Cc1cccc(C(=O)N(C)CC(=O)N2CCCC2)c1C,-14.8%
7,CNC(=O)CCOC(=O)c1cccc(-n2cccn2)c1,-10.7%
8,CC(=O)Nc1ccc(CNC(=O)CNCc2snnc2C)cc1,15.4%
9,COc1cc(N2CC[C@@H]3O[C@@H](c4ccnc(C)n4)C[C@H]3C2)ncn1,-4.55%
10,Cc1ccsc1CN(CCN(C)C)C(=O)c1ccc(C#N)nc1,-8.67%
11,c1cnnc(NCC2CN(Cc3cccc4c3OCCO4)CCO2)c1 (configuration not stated),-20.6%
12,CCNC(=O)[C@@H]1C[C@H](N)CN1c1cc(C(F)(F)F)nc(N2CCCC2)n1,3.41%
13,Cc1ccc(N2CCN(C(=O)C(O)c3cccc(Cl)c3)CC2=O)cc1 (configuration not stated),-5.15%
14,CN(CCc1ccccn1)C(=O)Cn1cc(-c2ccccc2)nn1,-3.22%
15,Cc1noc(C)c1C(=O)NCc1ccc(N2CCOCC2)nc1,-8.43%
16,COCCc1nnc(NC(=O)CSCc2ccccc2)o1,1.82%
17,CC(C)c1cc(NCc2csc(C(C)C)n2)nc(N)n1,24.3%
18,Cc1nccc(N[C@H]2CN(C(=O)CN3CCCC3=O)C[C@@H]2C(C)C)n1,-19.5%
19,CCC(=O)N1CCN(C)C(=O)C(Cc2ccccc2-c2cccs2)C1 (configuration not stated),-1.38%
